Counter-ions that a name gives are not always drawn.
Tests used:
[1] = Solubility of acid addition salts in a liquid carrier (e.g. water); conditions: salts of 1-(2,6-difluorophenyl)-N-[3-(5-morpholin-4-ylmethyl-1H-benzimidazol-2-yl)-1H-pyrazol-4-yl]-urea
[2] = Solid-state and dissolution properties of the L-lactate salt of the compound of formula (1) and its crystalline forms; assay type: physicochemical; conditions: for stability of crystalline form: crystalline forms of the L-lactate salt of the compound of formula (1)
Text: The lactic acid salts of the compound of formula (1) exist in one unstable form (FL3) and two stable forms (FL1 and FL2).

[3] = antitumour agent; cited from earlier work
HCT116 cell line = test: Anti-proliferative activity, Alamar Blue assay; assay type: cell-based; conditions: Homo sapiens, HCT-116, 72 h
Procedure: The anti-proliferative activities of compounds for use in the combinations of the invention can be determined by measuring the ability of the compounds to inhibition of cell growth in a number of cell lines such as the human colon cancer cell line HCT116. […] The method is based on the ability of viable cells to reduce resazurin to its fluorescent product resorufin. […] The number of viable cells is determined by Alamar Blue assay as before. Cell lines can be obtained from the ECACC (European Collection of cell Cultures).

[4] = target: T1, Human Hsp90a N-terminal domain (Homo sapiens, UniProt P07900); test: Isothermal titration calorimetry (ITC) binding to human Hsp90; conditions: pH 7.4
T1 construct: purification of the Human Hsp90a N-terminal domain; made in house
Procedure: The ability of the compounds for use in the combinations of the invention to bind to human Hsp90 proteins was determined using isothermal titration calorimetry.
Isothermal titration calorimetry (ITC) experiments were performed with a VP-ITC titration calorimeter (Microcal Inc., Northampton, Mass., USA). […] All solutions were filtered and degassed prior to a titration being carried out. The enthalpy change resulting from each injection of ligand was obtained through integration of the calorimetric signal. Data were analysed using Origin 7.0 (Microcal Software Inc., Northampton, Mass.). Heats of dilution were estimated using the final injections of each individual titration and subtracted before data fitting. Different ITC experimental formats were employed in order to obtain compound dissociation constants (Kd's) over a wide range of affinities. […] In this type of experiment the stoichiometry parameter (N) was locked at 1 for data fitting.

[5] = assay type: physicochemical
Text: Samples for X-ray powder diffraction (XRPD) data collection were gently ground by marble mortar and loaded into a crystallographic capillary (from Hampton Research, Quartz or Glass Type 10, 0.4 or 0.7 mm diameter). Diffraction patterns were collected at room temperature using CuKa radiation (λ=1.5418 Å) from a Rigaku rotating anode RU3HR, Osmic blue confocal optics, ¼ c goniometer and a Rigaku HTC image plate detector. 2D Images were collected while spinning φ axis with a detector to crystal distance of 250 mm. Data collection was controlled by CrystalClear software and 2D images were converted to 1D plot (20 vs. Intensity) by Datasqueeze (intensity averaged over the azimuthal angle 0<χ<360° for 2θ range 3-30° in 0.02° steps). In house program AstexXRPD was used for manipulation and visualisation of 1D XRPD patterns.
It is nominally a tri-hydrate because there are 3 crystal water positions in the asymmetric unit, but they are not 100% occupied at room temperature and laboratory humidity. A saturated solution of form FL1 in methanol:water 9:1 was prepared at room temperature. Slow precipitation with approximately 4 volumes of acetone gave form FL2 which is stable in air.
A saturated solution of form FL1 in THF was prepared at room temperature. Slow precipitation with approximately 4 volumes of heptane gave form FL3.

[6] = clinical studies; cited from earlier work
PKG = conditions: cited from earlier work
PKC = conditions: cited from earlier work
OVCAR-3 tumour cells = OVCAR-3 tumour cells in which PKB is amplified; concentrations of 50 and 100 microM; cited from earlier work
[7] = mice; doses 10 times more than were needed for antitumour activity; cited from earlier work
[8] = test system: Acute Promyelocytic Leukemia (APL); conditions: APL patients; cited from earlier work
[9] = Physicochemical properties of the crystalline lactate salt of compound (AA)
[10] = test system: P-glycoprotein-overexpressing subline of CCRF-CEM; conditions: cited from earlier work
tubulin = conditions: relative to epothilone A or paclitaxel; cited from earlier work
[11] = lactate (particularly L-lactate) salt of compound (AA)

In the case of “1-(2,6-difluorophenyl)-N-[3-(5-morpholin-4-ylmethyl-1H-benzimidazol-2-yl)-1H-pyrazol-4-yl]-urea [D-glucuronate]”, the solubility [1] is reported as “greater than 25 mg/ml”.

For `CC(C)c1cc(C(=O)N2Cc3ccc(CN4CCN(C)CC4)cc3C2)c(O)cc1O` [(2,4-dihydroxy-5-isopropyl-phenyl)-[5-(4-methyl-piperazin-1-ylmethyl)-1,3-dihydro-isoindol-2-yl]-methanone], the hygroscopicity ([2]; L-lactate of (2,4-dihydroxy-5-isopropyl-phenyl)-[5-(4-methyl-piperazin-1-ylmethyl)-1,3-dihydro-isoindol-2-yl]-methanone) was “non-hygroscopic” and the rate of solubility ([2]; compared with free base and hydrochloric and sulphuric acid salts) was “better rate of solubility than the free base and other salts tested”.

In the case of `CCN[C@H]1CO[C@@H](O[C@H]2[C@H](O[C@H]3C#C/C=C\C#C[C@]4(O)CC(=O)C(NC(=O)OC)=C3/C4=C\CSSSC)O[C@H](C)[C@@H](NO[C@H]3C[C@H](O)[C@H](SC(=O)c4c(C)c(I)c(O[C@@H]5O[C@@H](C)[C@H](O)[C@@H](OC)[C@H]5O)c(OC)c4OC)[C@@H](C)O3)[C@@H]2O)C[C@@H]1OC` [Calicheamicin], the “potency relative to adriamycin” value [3] is given as “over 1,000 times”.

Work on `CC(C)c1cc(C(=O)N2Cc3ccccc3C2)c(O)cc1O` [Example 5, (1,3-Dihydro-isoindol-2-yl)-(2,4-dihydroxy-5-isopropyl-phenyl)-methanone] yielded an IC50 (HCT116 cell line) of less than 1 µM.

Compound `CC(C)c1cc(C(=O)N2Cc3ccc(C(=O)N4CCNCC4)cc3C2)c(O)cc1O` [Example 54, (2,4-dihydroxy-5-isopropyl-phenyl)-[5-(piperazine-1-carbonyl)-1,3-dihydro-isoindol-2-yl]-methanone hydrochloride] has an IC50 (HCT116 cell line) of less than 1 µM.

Work on `CC(C)c1cc(C(=O)N2Cc3ccc(CN4CCN(C)CC4)cc3C2)c(O)cc1O` [Example 55, (2,4-dihydroxy-5-isopropyl-phenyl)-[5-(4-methyl-piperazin-1-ylmethyl)-1,3-dihydro-isoindol-2-yl]-methanone] yielded a Kd [4] of less than 0.1 µM.

With `CC(C)c1cc(C(=O)N2Cc3ccc(CN4CCN(C)CC4)cc3C2)c(O)cc1O` [FL1, (2,4-dihydroxy-5-isopropyl-phenyl)-[5-(4-methyl-piperazin-1-ylmethyl)-1,3-dihydro-isoindol-2-yl]-methanone L-lactate] the “stability of crystalline form” value [2] was “stable” and the “Stability of crystal form” value [5] was “stable in air and at 40 °C and 75% RH for at least one month”.

For `CC(C)c1cc(C(=O)N2Cc3ccc(CN4CCN(C)CC4)cc3C2)c(O)cc1O` [FL2, (2,4-dihydroxy-5-isopropyl-phenyl)-[5-(4-methyl-piperazin-1-ylmethyl)-1,3-dihydro-isoindol-2-yl]-methanone L-lactate], the “stability of crystalline form” value [2] was “stable hydrate” and the “Stability of crystal form” value [5] was “stable in air”.

For `CC(C)c1cc(C(=O)N2Cc3ccc(CN4CCN(C)CC4)cc3C2)c(O)cc1O` [FL3, (2,4-dihydroxy-5-isopropyl-phenyl)-[5-(4-methyl-piperazin-1-ylmethyl)-1,3-dihydro-isoindol-2-yl-]-methanone L-lactate], the “stability of crystalline form” value [2] was “unstable”, the “Stability of crystal form” value [5] was “transforms in air into form FL1” and the “Crystal form by XRPD after drying in air” value ([5]; sample dried in air for 2 days) was “conversion to form FL1 had occurred”.

For `CCCCCCCCCCCCCCCCCCOP(=O)([O-])OC1CC[N+](C)(C)CC1` [KRX-0401, Perifosine], the half-life [6] is listed as roughly 100 h.

For `O=S(=O)(NCCNCC=C(c1ccccc1)c1ccccc1)c1cccc2cnccc12` [NL-71-101], the IC50 (PKG) is listed as 36 µM, the IC50 (PKC) is listed as 104 µM and the apoptosis induction (OVCAR-3 tumour cells) is listed as “induced apoptosis”.

In the case of `CCOC(=O)c1ccc2[nH]c3c(OC)c4[nH]c5ccc(C(=O)OCC)cc5c4cc3c2c1` [SR-13668], the adverse effects [7] is listed as “no adverse effects”.

In the case of `CC1=C(/C=C/C(C)=C/C=C/C(C)=C/C(=O)O)C(C)(C)CCC1` [Tretinoin, all-trans retinoic acid], the remissions induced [8] is listed as 64-100%.

For `CC(C)c1cc(C(=O)N2Cc3ccc(CN4CCN(C)CC4)cc3C2)c(O)cc1O` [crystalline lactate salt, (2,4-dihydroxy-5-isopropyl-phenyl)-[5-(4-methyl-piperazin-1-ylmethyl)-1,3-dihydro-isoindol-2-yl]-methanone], the hygroscopicity ([9]; lactate (particularly L-lactate) salt of 1-cyclopropyl-3-[3-(5-morpholin-4-ylmethyl-1H-benzoimidazol-2-yl)-1H-pyrazol-4-yl]-urea (compound (AA))) was “non-hygroscopic”, the solubility in water [9, 11] was “good solubility in water” and the storage stability [9, 11] was “stable to storage”.

In the case of `C/C1=C/C[C@@H](/C(C)=C/c2csc(C)n2)OC(=O)C[C@H](O)C(C)(C)C(=O)[C@H](C)[C@@H](O)[C@@H](C)CCC1` [desoxyepothilone B], the IC50 [10] is given as 0.017 µM.

For `C/C(=C\c1csc(C)n1)[C@@H]1C[C@@H]2O[C@]2(C)CCC[C@H](C)[C@H](O)[C@@H](C)C(=O)C(C)(C)[C@@H](O)CC(=O)O1` [epothilone B], the “potency in inducing tubulin polymerization in vitro” value (tubulin) is listed as “approximately twice as potent as epothilone A or paclitaxel”.

For `CC(C)c1cc(C(=O)N2Cc3ccc(CN4CCN(C)CC4)cc3C2)c(O)cc1O` [lactate salt, (2,4-dihydroxy-5-isopropyl-phenyl)-[5-(4-methyl-piperazin-1-ylmethyl)-1,3-dihydro-isoindol-2-yl]-methanone], the “solid-state stability in conditions of high relative humidity” value ([9]; lactate salt of compound (AA), gravimetric vapour sorption) was “stable anhydrous crystalline form”.
